As usually defined, the IC50 is the concentration needed to halve the response being measured.

This test has as its target T1, ACAT (Rattus norvegicus, UniProt Q7TQM4).
T1 construct: Liver microsomes as an enzyme sample of ACAT were prepared from overnight-fasted male rats; from tissue; host or cells: liver of overnight-fasted male rats, 6 weeks old; microsomes
T1 sequence (Q7TQM4 1-524): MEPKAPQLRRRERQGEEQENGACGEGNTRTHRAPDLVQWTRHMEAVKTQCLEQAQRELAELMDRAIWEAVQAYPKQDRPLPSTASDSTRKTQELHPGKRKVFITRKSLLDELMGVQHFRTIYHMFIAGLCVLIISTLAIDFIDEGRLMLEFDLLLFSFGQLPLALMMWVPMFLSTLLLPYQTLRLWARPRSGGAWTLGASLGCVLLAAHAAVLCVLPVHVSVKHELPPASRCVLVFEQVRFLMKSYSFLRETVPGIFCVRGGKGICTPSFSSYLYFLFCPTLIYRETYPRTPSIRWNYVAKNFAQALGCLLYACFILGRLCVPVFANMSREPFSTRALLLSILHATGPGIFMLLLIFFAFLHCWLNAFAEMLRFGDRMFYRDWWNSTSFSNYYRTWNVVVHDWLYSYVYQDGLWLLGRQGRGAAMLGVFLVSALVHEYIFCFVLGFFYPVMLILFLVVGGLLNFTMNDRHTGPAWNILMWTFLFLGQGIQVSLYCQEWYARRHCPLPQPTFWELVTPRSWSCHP
Kind of test: Inhibitory effect on microsomal ACAT activity in rat liver. Particulars: rat liver microsomes; read-out: IC50 (50% inhibition of cholesterol esterification). It counts as biochemical. In general terms: Liver microsomes are a subcellular fraction often used to study metabolism.
Take `CCCN(CC(=O)Nc1c(S)nc(C)nc1N(CC)CC)c1ccccc1` [Example 133, N-[4-(N,N-diethylamino)-6-mercapto-2-methylpyrimidin-5-yl]-2-(N-phenyl-N-propylamino)acetamide]: the IC50 is 260 nM. Consider `CCCN(CCCC(=O)Nc1c(S)nc(C)nc1N(CC)CC)c1ccccc1` [Example 145, N-[4-(N,N-diethylamino)-6-mercapto-2-methylpyrimidin-5-yl]-4-(N-phenyl-N-propylamino)butanamide], for which the IC50 amounted to 80 nM. The figure for `CCCCN(CCCC)c1nc(C)nc(S)c1NC(=O)CCCN(CCC)c1ccccc1` [Example 146, N-[4-(N,N-dibutylamino)-6-mercapto2-methylpyrimidin-5-yl]-4-(N-phenyl-N-propylamino)butanamide] is 110 nM; for `CCCCCCN(CCCC(=O)Nc1c(S)nc(C)nc1N(CCC)CCC)c1ccccc1` [Example 156, N-[4-(N,N-dipropylamino)-6-mercapto-2-methylpyrimidin-5-yl]-4-(N-hexyl-N-phenylamino)butanamide] it is 38 nM. Then `CCCCCCN(CCCC(=O)Nc1c(OC)nc(C)nc1N(CC)CC)c1ccccc1` [Example 166, N-[4-(N,N-diethylamino)-6-methoxy-2-methylpyrimidin-5-yl]-4-(N-hexyl-N-phenylamino)butanamide], with 81 nM; and `CCCCCCN(CCCC(=O)Nc1c(OC)nc(C)nc1N(CCC)CCC)c1ccccc1` [Example 167, N-[4-(N,N-dipropylamino)-6-methoxy-2-methylpyrimidin-5-yl]-4-(N-hexyl-N-phenylamino)butanamide], with 43 nM.

Regarding `CCCCCCN(CCCC(=O)Nc1c(OC)nc(SC)nc1N(CC)CC)c1ccccc1` [Example 168, N-[4-(N,N-diethylamino)-6-methoxy-2-methylthiopyrimidin-5-yl]-4-(N-hexyl-N-phenylamino)butanamide], the IC50 came out at 87 nM.

Consider `CCCN(CCCC(=O)Nc1c(S)nc(C)nc1N(CC)CC)c1ccc(OC)cc1` [Example 173, N-[4-(N,N-diethylamino)-6-mercapto-2-methylpyrimidin-5-yl]-4-[N-(4-methoxyphenyl)-N-propylamino]butanamide], for which the IC50 was 170 nM.

On to `CCCN(CCCC(=O)Nc1c(S)nc(C)nc1N(CC)CC)c1ccc(F)cc1F` [Example 180, N-[4-(N,N-diethylamino)-6-mercapto-2-methylpyrimidin-5-yl]-4-[N-(2,4-difluorophenyl)-N-propylamino]butanamide], for which the IC50 came out at 200 nM.

Consider `CCCCCCCN(CCCC(=O)Nc1c(S)nc(C)nc1N(CC)CC)Cc1ccccc1` [Example 182, 4-(N-benzyl-N-heptylamino)-N-[4-(N,N-diethylamino)-6-mercapto-2-methylpyrimidin-5-yl]butanamide], for which the IC50 came out at 220 nM. For `CCN(CC)c1nc(C)nc(S)c1NC(=O)CCCN1CCCc2ccccc21` [Example 183, N-[4-(N,N-diethylamino)-6-mercapto-2-methylpyrimidin-5-yl]-4-(tetrahydroquinolino)butanamide], the IC50 turned out to be 280 nM.

With `CCCN(CCCCC(=O)Nc1c(S)nc(C)nc1N(CCC)c1ccccc1)c1ccccc1` [Example 185, N-[4-mercapto-2-methyl-6-(N-phenyl-N-propylamino)pyrimidin-5-yl]-5-(N-phenyl-N-propylamino)pentanamide], the IC50 worked out at 79 nM. Turning to `CCCN(CCCCC(=O)Nc1c(S)nc(C)nc1N(CC)CC)c1ccccc1` [Example 187, N-[4-(N,N-diethylamino)-6-mercapto-2-methylpyrimidin-5-yl]-5-(N-phenyl-N-propylamino)pentanamide], the IC50 amounted to 47 nM. As to `CCCN(CCCCC(=O)Nc1c(S)nc(C)nc1N(CCC)CCC)c1ccccc1` [Example 188, N-[4-(N,N-dipropylamino)-6-mercapto-2-methylpyrimidin-5-yl]-5-(N-phenyl-N-propylamino)pentanamide], the IC50 stood at 35 nM. As for `CCCCN(CCCC)c1nc(C)nc(OC)c1NC(=O)CCCCN(CCC)c1ccccc1` [Example 195, N-[4-(N,N-dibutylamino)-6-methoxy-2-methylpyrimidin-5-yl]-5-(N-phenyl-N-propylamino)pentanamide], the IC50 was 47 nM. With `CCCCN(CCCC)c1ncnc(OCC)c1NC(=O)CCCCN(CCC)c1ccccc1` [Example 197, N-[4-(N,N-dibutylamino)-6-ethoxypyrimidin-5-yl]-5-(N-phenyl-N-propylamino)pentanamide], the IC50 was found to be 8.8 nM. For the compound `CCCN(CCCCCC(=O)Nc1c(S)nc(C)nc1N(CCC)c1ccccc1)c1ccccc1` [Example 205, N-[4-mercapto-2-methyl-6-(N-phenyl-N-propylamino)pyrimidin-5-yl]-6-(N-phenyl-N-propylamino)hexanamide], the IC50 was 280 nM.

As for `CCCN(CC(=O)Nc1c(SC)nc(C)nc1N(CC)CC)Cc1ccccc1` [Example 210, 2-(N-benzyl-N-propylamino) N-[4-(N,N-diethylamino)-2-methyl-6-methylthiopyrimidin-5-yl]acetamide], the IC50 worked out at 470 nM.

As to `CCCN(CCCC(=O)Nc1c(SC)nc(C)nc1N(CCC)c1ccccc1)c1ccccc1` [Example 218, N-[2-methyl-4-methylthio-6-(N-phenyl-N-propylamino)pyrimidin-5-yl]-4-(N-phenyl-N-propylamino)butanamide], the IC50 was 430 nM. With `CCN(CC)c1nc(C)nc(SC)c1NC(=O)CCCN(C)c1ccccc1` [Example 224, N-[4-(N,N-diethylamino)-2-methyl-6-methylthiopyrimidin-5-yl]-4-(N-methyl-N-phenylamino)butanamide], the IC50 was found to be 220 nM.

Turning to `CCCCCCN(CCCC(=O)Nc1c(SC)nc(C)nc1N(CCC)CCC)c1ccccc1` [Example 226, N-[4-(N,N-dipropylamino)-2-methyl-6-methylthiopyrimidin-5-yl]-4-(N-hexyl-N-phenylamino)butanamide], the IC50 was determined as 16 nM. For the compound `CCCCCCN(CCCC(=O)Nc1c(SC)nc(C)nc1N(CCCC)CCCC)c1ccccc1` [Example 227, N-[4-(N,N-dibutylamino)-2-methyl-6-methylthiopyrimidin-5-yl]-4-(N-hexyl-N-phenylamino)butanamide], the IC50 is 110 nM. For `CCCCCCN(CCCC(=O)Nc1c(SC)nc(SC)nc1N(CC)CC)c1ccccc1` [Example 234, N-[4-(N,N-diethylamino)-2,6-bis(methylthio)pyrimidin-5-yl]-4-(N-hexyl-N-phenylamino)butanamide], the IC50 amounted to 25 nM.

Regarding `CCN(CC)c1nc(C)nc(SC)c1NC(=O)CCCN(c1ccccc1)C1CCCCCC1` [Example 235, 4-(N-cycloheptyl-N-phenylamino)-N-[4-(N,N-diethylamino)-2-methyl-6-methylthiopyrimidin-5-yl]butanamide], the IC50 came out at 26 nM. Take `CCCCCCCCCCN(CCCC(=O)Nc1c(SC)nc(C)nc1N(CC)CC)c1ccccc1` [Example 236, 4-(N-decyl-N-phenylamino)-N-[4-(N,N-diethylamino)-2-methyl-6-methylthiopyrimidin-5-yl]butanamide]: the IC50 turned out to be 32 nM. On to `CCCCc1ccc(N(CCC)CCCC(=O)Nc2c(SC)nc(C)nc2N(CC)CC)cc1` [Example 237, 4-[N-(4-butylphenyl)-N-propylamino]-N-[4-(N,N-diethylamino)-2-methyl-6-methylthiopyrimidin-5-yl]butanamide], for which the IC50 was 83 nM.

With `CCCCCCN(CCCC(=O)Nc1c(SC)nc(C)nc1N(CC)CC)c1ccc(OC)cc1` [Example 239, N-[4-(N,N-diethylamino)-2-methyl-6-methylthiopyrimidin-5-yl]-4-[N-hexyl-N-(4-methoxyphenyl)amino]butanamide], the IC50 is 120 nM.

Consider `CCCN(CCCC(=O)Nc1c(SC)nc(C)nc1N(CC)CC)c1ccc(F)cc1F` [Example 241, N-[4-(N,N-diethylamino)-2-methyl-6-methylthiopyrimidin-5-yl]-4-[N-(2,4-difluorophenyl)-N-propylamino]butanamide], for which the IC50 turned out to be 76 nM. As to `CCCN(CCCC(=O)Nc1c(SC)nc(C)nc1N(CC)CC)Cc1ccccc1` [Example 242, 4-(N-benzyl-N-propylamino)-N-[4-(N,N-diethylamino)-2-methyl-6-methylthiopyrimidin-5-yl]butanamide], the IC50 is 220 nM. Take `CCCCCCCN(CCCC(=O)Nc1c(SC)nc(C)nc1N(CC)CC)Cc1ccccc1` [Example 243, 4-(N-benzyl-N-heptylamino)-N-[4-(N,N-diethylamino)-2-methyl-6-methylthiopyrimidin-5-yl]butanamide]: the IC50 was found to be 95 nM. The figure for `CCN(CC)c1nc(C)nc(SC)c1NC(=O)CCCN1CCCc2ccccc21` [Example 244, N-[4-(N,N-diethylamino)-2-methyl-6-methylthiopyrimidin-5-yl]-4-(N-tetrahydroquinolino)butanamide] is 190 nM; for `CCCN(CCCCC(=O)Nc1c(SC)nc(C)nc1N(CC)CC)c1ccccc1` [Example 245, N-[4-(N,N-diethylamino)-2-methyl-6-methylthiopyrimidin-5-yl]-5-(N-phenyl-N-propylamino)pentanamide] it is 64 nM; for `CCCN(CCCCC(=O)Nc1c(SC)nc(C)nc1N(CCC)CCC)c1ccccc1` [Example 246, N-[4-(N,N-dipropylamino)-2-methyl-6-methylthiopyrimidin-5-yl]-5-(N-phenyl-N-propylamino)pentanamide] it is 14 nM.

These data come from patent US5397781A, “Pyrimidine derivatives” (Mochida Pharmaceutical Company, Limited, priority 1992, dated 1995).
